Literature values in patent publication US20250215053A1, “LYSINE RICH CELL-PENETRATING PEPTIDES” (OXFORD UNIVERSITY INNOVATION LIMITED, priority 2022, published 2025).

Test system: dystrophin
Settings: in vivo

Question: Which dystrophin restoration does the source give for eteplirsen here?
Answer: approximately 1 % of normal dystrophin levels
